From patent US5567722A, “Cyanoguanidines as K-channel blockers” (The Upjohn Company, priority 1995, dated 1996) come the findings set out here.

The test system of the assay is K+ channel of rabbit mesenteric artery (RMA). The assay is described as follows: K+ channel antagonism: inhibition of pinacidil-induced relaxation of norepinephrine-contracted rabbit mesenteric artery (RMA) rings. The class given is cell-based. The protocol: The results for potassium channel blocking were obtained by using isolated rabbit mesenteric artery (RMA) procedures. Norepinephrine (5 μM) was used to contract the RMA rings twice, with an hour separating the two contractions. During this hour the tissues equilibrated in physiological salt solution at a resting tension of 1 gram. Upon the plateau of the second contraction 1 μM pinacidil was added to all tissues and the resulting relaxation time course was studied for thirty minutes. […] By studying the ability of the test compounds to inhibit this pinacidil-induced relaxation, the degree of potassium antagonism could be determined. The compounds were applied to the tissues for one hour between the two contractions and the pinacidil-induced relaxation was studied in the continuing presence of the compounds. Thus, the total time of pretreatment with the test compound was 75 minutes before the addition of pinacidil. […]
Data for K^+ channel antagonist activity on rabbit mesenteric artery (RMA) and natriuretic efficacy after […] (IP) administration to rats are collected in Tables III and IV. It was known, for example, that a compound where both methyl groups on the benzylic carbon of Example 9 had been removed was a weak PCO rather than a K^+ channel antagonist. Similarly a compound in which the phenyl was attached directly to the guanidine nitrogen was also a K^+ channel agonist.
^a This is a measure of a compound's ability to inhibit the relaxatio
of norepinephrine (5 μM) contracted rabbit mesenteric artery rings by
pinacidil (1 μM). It is expressed as percent inhibition (mean ± sem
at an inhibitor concentration of 5 μM. Compounds with 65% or g greater
inhibition at 5 μM are considered to be active, with 2065\% inhibition

The mark [1] stands for this setting: Oryctolagus cuniculus, 0.25 h, Table III, inhibition of relaxation by pinacidil 1 μM at 15 min, mean ± sem (number of rings), >=65% considered active, <20% inactive, read-out: RMA K+ Channel Antagonism % I at 5 μM.
[2] abbreviates: Oryctolagus cuniculus, Table III footnote, read-out: RMA K+ channel antagonism, Percent inhibition at 1 μM.
[3] abbreviates: Oryctolagus cuniculus, Table III footnote, read-out: RMA K+ channel antagonism, Percent inhibition at 0.5 μM.
Where [4] appears, read: Oryctolagus cuniculus, Table IV, lowest concentration giving >20% inhibition or lowest tested, read-out: RMA K+ Channel Antagonism % I (conc. μM).

SMILES strings stand for the structures. Like-named read-outs stand apart in the source and are kept apart here.

With `CC(NC(=NC#N)Nc1cccnc1)c1ccccc1` (racemic) [Compound 7, N"-Cyano-N-(3-pyridyl)-N'-(1-phenyl)ethylguanidine], the inhibition at 5 µM under setting [1] amounted to 65.3 ± 10.2%.

In the case of `C[C@@H](NC(=NC#N)Nc1cccnc1)c1ccccc1` [Compound 1, (R)-N"-Cyano-N-(3-pyridyl)-N'-(1-phenyl)ethylguanidine], under setting [1], the inhibition at 5 µM was 86.3 ± 5%. Also, the inhibition at 1 µM under setting [2] is 17.1%. For the same molecule, the inhibition at 2.5 µM (Oryctolagus cuniculus, Table III footnote, 2.5 μM, read-out: RMA K+ channel antagonism, Percent inhibition at 2.5 μM) stood at 88.9 ± 11.2%.

Consider `CCC(NC(=NC#N)Nc1cccnc1)c1ccccc1` (stereo not shown) [Compound 2, N"-Cyano-N-(3-pyridyl)-N'-(1-phenyl)propylguanidine], for which the inhibition at 5 µM under setting [1] was 78.8 ± 3.9%. Further, the inhibition at 1 µM under setting [2] is 25.6 ± 17.2%.

In the case of `N#CN=C(Nc1cccnc1)NC1(c2ccccc2)CC=CC1` [Compound 3, N"-Cyano-N'-(1-phenylcyclopent-3-enyl)-N-(3-pyridyl)guanidine], the inhibition at 5 µM under setting [1] came out at 91%.

`N#CN=C(Nc1cccnc1)N[C@@H](CO)c1ccccc1` [Compound 4, (R)-N"-Cyano-N'-(2-hydroxy-1-phenylethyl)-N-(3-pyridyl)guanidine]: the inhibition at 5 µM under setting [1] came to 2.6 ± 1.7%.

As to `C[C@H](NC(=NC#N)Nc1cccnc1)c1ccccc1` [Compound 8], the inhibition at 5 µM under setting [1] was 22.1 ± 21.2%.

As for `CC(C)(NC(=NC#N)Nc1cccnc1)c1ccccc1` [Compound 9], the inhibition at 5 µM under setting [1] came out at 89.5 ± 3.6%.

As for `N#CN=C(Nc1cccnc1)NC1(c2ccccc2)CCCCC1` [Compound 10], the inhibition at 5 µM under setting [1] amounted to 85.5 ± 2.2%.

Regarding `N#CN=C(Nc1cccnc1)NC1(c2ccccc2)CCCC1` [Compound 11], the inhibition at 5 µM under setting [1] was determined as 90.4 ± 2.3%. The inhibition at 0.5 µM under setting [3] came to 78.8 ± 4.4%.

For `CC(C)C(NC(=NC#N)Nc1cccnc1)c1ccccc1` (stereo not shown) [Compound 12], the inhibition at 5 µM under setting [1] was found to be 85.5 ± 0.6%. Also, the inhibition at 0.5 µM under setting [3] was 43.6%. Moreover, the inhibition at 1 µM under setting [2] was found to be 78.2 ± 1.9%.

Turning to `CC(C)(C)C(NC(=NC#N)Nc1cccnc1)c1ccccc1` (stereo not shown) [Compound 13], under setting [1], the inhibition at 5 µM turned out to be 83.2 ± 12%. The inhibition at 0.5 µM under setting [3] came out at 82 ± 1.8%.

Consider `Cc1ccccc1C(C)NC(=NC#N)Nc1cccnc1` (stereo not shown) [Compound 14], for which the inhibition at 5 µM under setting [1] turned out to be 58.7 ± 8.3%.

`Cc1cccc(C(C)NC(=NC#N)Nc2cccnc2)c1` (stereo not shown) [Compound 15]: under setting [1], the inhibition at 5 µM was determined as 82 ± 3.9%.

With `COCC(NC(=NC#N)Nc1cccnc1)c1ccccc1` (stereo not shown) [Compound 16], the inhibition at 5 µM under setting [1] came to 51.1 ± 11.6%.

Take `N#CN=C(Nc1cccnc1)NC(c1ccccc1)C1CC1` (stereo not shown) [Compound 17, N"-Cyano-N-(3-pyridyl)-N'-phenylcyclopropylmethylguanidine]: the inhibition at 5 µM under setting [1] is 93.3 ± 2.2%.

For the molecule `N#CN=C(Nc1cccnc1)NC(c1ccccc1)C1CCCC1` (stereo not shown) [Compound 18], the inhibition at 5 µM under setting [1] is 88.1 ± 2%.

On to `N#CN=C(Nc1cccnc1)NC(c1ccccc1)C1CCC1` (stereo not shown) [Compound 19], for which the inhibition at 5 µM under setting [1] was 96 ± 2.1%.

Consider `CC[C@H](NC(=NC#N)Nc1cccnc1)c1ccccc1` [Compound 20], for which the inhibition at 5 µM under setting [1] turned out to be 13.9 ± 7.2%.

On to `CC(NC(=NC#N)Nc1cccnc1)c1cccc(C(F)(F)F)c1` (stereo not shown) [Compound 21], for which the inhibition at 5 µM under setting [1] was determined as 85.3 ± 3.2%.

Turning to `CC[C@@H](NC(=NC#N)Nc1cccnc1)c1ccccc1` [Compound 22, (R) N"-Cyano-N-(3-pyridyl)-N'-(1-phenylpropyl)guanidine], the inhibition at 5 µM under setting [1] is 89 ± 3.2%. Besides, where the note is “Oryctolagus cuniculus, Table III footnote, 0.1 μM, read-out: RMA K+ channel antagonism, Percent inhibition at 0.1 μM”, the inhibition at 0.1 µM came to 5 ± 2%. Further, the inhibition at 0.25 µM (Oryctolagus cuniculus, Table III footnote, 0.25 μM, read-out: RMA K+ channel antagonism, Percent inhibition at 0.25 μM) was determined as 52 ± 1%. The inhibition at 0.5 µM under setting [3] amounted to 81.5 ± 5.9%.

For `CC(NC(=NC#N)Nc1cccnc1)c1ccc(Cl)c(Cl)c1` (stereo not shown) [Compound 23], under setting [1], the inhibition at 5 µM is 90.8 ± 2.8%.

On to `CC(NC(=NC#N)Nc1cccnc1)c1cc(Cl)ccc1Cl` (stereo not shown) [Compound 24], for which the inhibition at 5 µM under setting [1] came out at 86.9 ± 4%.

`CC(NC(=NC#N)Nc1cccnc1)c1cccc(Cl)c1` (stereo not shown) [Compound 25]: the inhibition at 5 µM under setting [1] was determined as 89.9 ± 0.1%.

Turning to `CC(NC(=NC#N)Nc1cccnc1)c1ccccc1Cl` (stereo not shown) [Compound 26], the inhibition at 5 µM under setting [1] came to 74.7 ± 2.7%.

On to `N#CN=C(Nc1cccnc1)N[C@H](CO)c1ccccc1` [Compound 27], for which the inhibition at 5 µM under setting [1] amounted to 92.5 ± 3.1%.

Consider `CCCC(NC(=NC#N)Nc1cccnc1)c1ccccc1` (stereo not shown) [Compound 28], for which, under setting [1], the inhibition at 5 µM is 85.2 ± 4.8%.

As to `CNc1ccc(NC(=NC#N)NC(C)c2ccccc2)cn1` (stereo not shown) [Compound 29], the inhibition at 5 µM under setting [4] was 63.4%.

Take `CCC(NC(=NC#N)Nc1ccc(NC(C)=O)nc1)c1ccccc1` (stereo not shown) [Compound 30]: the inhibition at 5 µM under setting [4] was 0%.

For `N#CN=C(Nc1cccnc1)NC1(c2cccc(Br)c2)CCC1` [Compound 31], under setting [4], the inhibition at 0.05 µM came to 50%.

In the case of `N#CN=C(Nc1cccnc1)NC1(c2cccc(Cl)c2F)CCC1` [Compound 32], the inhibition at 0.05 µM under setting [4] is 66%.

For the molecule `CCN(CC)c1ccc(NC(=NC#N)N[C@H](C)c2ccccc2)cn1` [Compound 33], the inhibition at 5 µM under setting [4] turned out to be 10.8%.

For the molecule `C[C@@H](NC(=NC#N)Nc1ccc(Cl)nc1)c1ccccc1` [Compound 34], the inhibition at 1 µM under setting [4] is 49.5%.

For `C[C@@H](NC(=NC#N)Nc1ccc(N(C)C)nc1)c1ccccc1` [Compound 35], the inhibition at 5 µM under setting [4] was 10.6%.

For `CC(NC(=NC#N)Nc1ccc(N)nc1)c1ccccc1` (stereo not shown) [Compound 36], the “RMA K+ Channel Antagonism % I (conc. μM)” value (Table IV, concentration not printed (empty parentheses)) worked out at 66.5%.

Turning to `CN(C)c1ccc(NC(=NC#N)N[C@H](CO)c2ccccc2)cn1` [Compound 37], the inhibition at 5 µM under setting [4] came out at 6.6%.

Consider `CCC(NC(=NC#N)Nc1cccnc1)c1cccc(F)c1` (stereo not shown) [Compound 38], for which the inhibition at 0.5 µM under setting [4] was found to be 68.6%.

Regarding `CCC(NC(=NC#N)Nc1cccnc1)c1cccc(Br)c1` (stereo not shown) [Compound 39], the inhibition at 0.5 µM under setting [4] is 87.2%.

With `CC(NC(=NC#N)Nc1cccnc1)c1cc(F)cc(F)c1` (stereo not shown) [Compound 40], the inhibition at 0.5 µM under setting [4] turned out to be 55.5%.

Regarding `CCC(NC(=NC#N)Nc1cccnc1)c1cccc(I)c1` (stereo not shown) [Compound 41], the inhibition at 5 µM under setting [4] was found to be 90.1%.

Turning to `N#CN=C(Nc1cccnc1)NC1(c2cccc(F)c2)CCC1` [Compound 42], the inhibition at 0.05 µM under setting [4] was determined as 50%.

As for `CCC(NC(=NC#N)Nc1cccnc1)c1ccccc1F` (stereo not shown) [Compound 43], the inhibition at 0.05 µM under setting [4] was 30%.

For the molecule `CC[C@@H](NC(=NC#N)Nc1ccc(N)nc1)c1ccccc1` [Compound 44, (R)-N-(6-Amino-3-pyridyl)-N"-cyano-N'-(1-phenylpropyl)guanidine], the inhibition at 5 µM under setting [4] was 60%.

Take `N#CN=C(Nc1cccnc1)NC1(c2cccc(Cl)c2)CCC1` [Compound 45, N'-[1-(3-Chlorophenyl)cyclobutyl]-N"-cyano-N-(3-pyridyl)guanidine]: under setting [4], the inhibition at 0.05 µM amounted to 91%.

For the molecule `N#CN=C(Nc1ccc(N)nc1)NC1(c2ccccc2)CCC1` [Compound 46, N"-Cyano-N-(6-amino-3-pyridyl)-N'-(1-phenylcyclobutyl)guanidine], under setting [4], the inhibition at 0.5 µM was determined as 45%.

Take `N#CN=C(Nc1ccc(N)nc1)NC1(c2cccc(F)c2)CCC1` [Compound 47]: the inhibition at 0.05 µM under setting [4] came to 79%.

With `N#CN=C(Nc1cccnc1)NC1(c2cccc(F)c2F)CCC1` [Compound 48], under setting [4], the inhibition at 0.05 µM was 45%.

Consider `CC(NC(=NC#N)Nc1cccnc1)c1cccc(F)c1` (stereo not shown) [Compound 50], for which the inhibition at 5 µM under setting [4] came out at 94.6%.

On to `N#CN=C(Nc1cccnc1)NC1(c2ccccc2)CCC1` [Compound 51, N"-Cyano-N-(3-pyridyl)-N'-(1-phenylcyclobutyl)guanidine], for which, under setting [4], the inhibition at 0.5 µM was 82.9%.

For `CCC(NC(=NC#N)Nc1cccnc1)c1cccc(Cl)c1` (stereo not shown) [Compound 52], the inhibition at 0.5 µM under setting [4] was found to be 94%.

On to `CC[C@@H](NC(=NC#N)Nc1ccc(N(C)C)nc1)c1ccccc1` [Compound 53, (R)-N"-Cyano-N'-(1-phenylpropyl)-N-[6-(dimethylamino)-3-pyridyl]guanidine], for which the inhibition at 5 µM under setting [4] was determined as 4.1%.

As for `CCC(NC(=NC#N)Nc1ccc[n+]([O-])c1)c1ccccc1` (stereo not shown) [Compound 54, N"-Cyano-N'-(1-phenylpropyl)-N-(3-pyridyl)guanidine, pyridine N-oxide], under setting [4], the inhibition at 5 µM is 15.4%.

In the case of `C[C@@H](NC(=NC#N)Nc1ccc[n+]([O-])c1)c1ccccc1` [Compound 55, (R)-N"-Cyano-N'-(1-phenylethyl)-N-(3-pyridyl)guanidine, pyridine N-oxide], under setting [4], the inhibition at 5 µM is 16.3%.

With `CCNc1ccc(NC(=NC#N)N[C@H](C)c2ccccc2)cn1` [Compound 56], the inhibition at 5 µM under setting [4] turned out to be 19.1%.

As to `COCCCNc1ccc(NC(=NC#N)N[C@H](C)c2ccccc2)cn1` [Compound 57], the inhibition at 5 µM under setting [4] stood at 7.8%.
